Tests used:
[1] = target: 5'-AMP-activated protein kinase catalytic subunit alpha-2 (Homo sapiens) (UniProt P54646)
[2] = target: Calcium/calmodulin-dependent protein kinase type II subunit beta (Homo sapiens) (UniProt Q13554)
[3] = target: T1, Calcium/calmodulin-dependent protein kinase type IV (Homo sapiens) (UniProt Q16566)
T1 sequence (whole entry): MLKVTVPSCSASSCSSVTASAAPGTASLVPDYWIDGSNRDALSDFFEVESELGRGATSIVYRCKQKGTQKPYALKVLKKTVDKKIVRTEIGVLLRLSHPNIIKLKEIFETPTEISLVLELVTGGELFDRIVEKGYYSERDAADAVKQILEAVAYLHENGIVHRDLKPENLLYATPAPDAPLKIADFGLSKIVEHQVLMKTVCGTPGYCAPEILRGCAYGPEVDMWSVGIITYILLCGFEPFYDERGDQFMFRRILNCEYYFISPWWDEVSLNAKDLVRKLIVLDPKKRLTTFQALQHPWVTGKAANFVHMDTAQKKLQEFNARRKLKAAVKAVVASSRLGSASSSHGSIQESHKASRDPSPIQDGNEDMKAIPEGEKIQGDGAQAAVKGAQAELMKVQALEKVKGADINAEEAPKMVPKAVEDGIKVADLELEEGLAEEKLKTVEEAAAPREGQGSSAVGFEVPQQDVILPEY

[4] = target: Casein kinase I isoform gamma-3 (Homo sapiens) (UniProt Q9Y6M4)
[5] = target: T2, Dual specificity mitogen-activated protein kinase kinase 6 (Homo sapiens) (UniProt P52564)
T2 sequence (whole entry): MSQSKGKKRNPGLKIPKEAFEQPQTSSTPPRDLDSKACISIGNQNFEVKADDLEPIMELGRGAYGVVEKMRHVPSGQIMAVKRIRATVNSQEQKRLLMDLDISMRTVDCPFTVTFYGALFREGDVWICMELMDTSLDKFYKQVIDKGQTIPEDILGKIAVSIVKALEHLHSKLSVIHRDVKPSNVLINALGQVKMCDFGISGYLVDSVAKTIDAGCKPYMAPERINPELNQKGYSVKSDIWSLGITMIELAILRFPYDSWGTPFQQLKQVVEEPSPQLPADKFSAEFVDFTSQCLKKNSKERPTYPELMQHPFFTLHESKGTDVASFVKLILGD

[6] = target: Mitogen-activated protein kinase 6 (Homo sapiens) (UniProt Q16659)
[7] = target: Serine/threonine-protein kinase PAK 4 (Homo sapiens) (UniProt O96013)
[8] = target: Serine/threonine-protein kinase PAK 5 (Homo sapiens) (UniProt Q9P286)
[9] = target: Cyclin-dependent kinase 16 (Homo sapiens) (UniProt Q00536)
[10] = target: T3, 3-phosphoinositide-dependent protein kinase 1 (Homo sapiens) (UniProt O15530)
T3 sequence (whole entry): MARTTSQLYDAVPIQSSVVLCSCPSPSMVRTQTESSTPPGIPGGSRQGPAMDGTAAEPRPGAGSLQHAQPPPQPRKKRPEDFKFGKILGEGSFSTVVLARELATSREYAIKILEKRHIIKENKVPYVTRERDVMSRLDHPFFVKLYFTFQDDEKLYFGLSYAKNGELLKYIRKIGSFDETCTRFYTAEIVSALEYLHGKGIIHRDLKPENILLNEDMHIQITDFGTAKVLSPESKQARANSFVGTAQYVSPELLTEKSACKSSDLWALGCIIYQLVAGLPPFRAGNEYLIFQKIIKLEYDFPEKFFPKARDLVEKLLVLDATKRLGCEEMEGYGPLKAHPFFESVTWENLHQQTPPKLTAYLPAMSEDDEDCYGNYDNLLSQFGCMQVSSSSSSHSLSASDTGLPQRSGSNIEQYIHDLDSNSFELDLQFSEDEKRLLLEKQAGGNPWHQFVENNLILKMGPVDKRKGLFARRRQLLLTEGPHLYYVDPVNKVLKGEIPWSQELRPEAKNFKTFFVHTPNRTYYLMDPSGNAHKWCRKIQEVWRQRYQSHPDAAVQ

[11] = target: Serine/threonine-protein kinase RIO2 (Homo sapiens) (UniProt Q9BVS4)
[12] = target: Ribosomal protein S6 kinase alpha-3 (Homo sapiens) (UniProt P51812)
[13] = target: Serine/threonine-protein kinase 16 (Homo sapiens) (UniProt O75716)
[14] = target: T4, Serine/threonine-protein kinase 17A (Homo sapiens) (UniProt Q9UEE5)
T4 sequence (whole entry): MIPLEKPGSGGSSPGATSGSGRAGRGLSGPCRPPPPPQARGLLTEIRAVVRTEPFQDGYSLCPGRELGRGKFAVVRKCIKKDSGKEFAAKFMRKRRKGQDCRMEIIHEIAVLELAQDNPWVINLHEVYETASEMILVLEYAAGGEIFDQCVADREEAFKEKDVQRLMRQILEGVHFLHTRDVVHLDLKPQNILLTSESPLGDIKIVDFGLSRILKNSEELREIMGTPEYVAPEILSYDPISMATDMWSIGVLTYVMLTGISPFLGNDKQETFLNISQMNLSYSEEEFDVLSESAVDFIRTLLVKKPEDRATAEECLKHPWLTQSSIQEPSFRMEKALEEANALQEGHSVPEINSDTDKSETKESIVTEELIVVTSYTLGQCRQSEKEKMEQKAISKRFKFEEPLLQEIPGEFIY

[15] = target: Serine/threonine-protein kinase 38 (Homo sapiens) (UniProt Q15208)
[16] = target: Serine/threonine-protein kinase VRK2 (Homo sapiens) (UniProt Q86Y07)

Serine/threonine-protein kinase RIO2 (Homo sapiens), sequence (Q9BVS4 whole entry, looked up): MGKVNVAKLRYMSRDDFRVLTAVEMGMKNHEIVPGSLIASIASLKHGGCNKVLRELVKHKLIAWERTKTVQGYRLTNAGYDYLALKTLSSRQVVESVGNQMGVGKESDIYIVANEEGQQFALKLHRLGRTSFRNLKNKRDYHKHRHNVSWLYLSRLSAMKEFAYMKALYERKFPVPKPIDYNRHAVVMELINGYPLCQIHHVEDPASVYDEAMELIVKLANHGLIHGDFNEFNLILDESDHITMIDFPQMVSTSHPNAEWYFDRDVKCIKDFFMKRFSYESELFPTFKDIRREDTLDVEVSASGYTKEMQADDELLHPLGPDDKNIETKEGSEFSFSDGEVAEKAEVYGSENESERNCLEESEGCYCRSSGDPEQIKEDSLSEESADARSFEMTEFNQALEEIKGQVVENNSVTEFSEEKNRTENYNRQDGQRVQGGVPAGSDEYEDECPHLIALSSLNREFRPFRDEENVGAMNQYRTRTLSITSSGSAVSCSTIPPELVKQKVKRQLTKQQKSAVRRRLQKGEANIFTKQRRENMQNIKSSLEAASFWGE
Ribosomal protein S6 kinase alpha-3 (Homo sapiens), sequence (P51812 whole entry): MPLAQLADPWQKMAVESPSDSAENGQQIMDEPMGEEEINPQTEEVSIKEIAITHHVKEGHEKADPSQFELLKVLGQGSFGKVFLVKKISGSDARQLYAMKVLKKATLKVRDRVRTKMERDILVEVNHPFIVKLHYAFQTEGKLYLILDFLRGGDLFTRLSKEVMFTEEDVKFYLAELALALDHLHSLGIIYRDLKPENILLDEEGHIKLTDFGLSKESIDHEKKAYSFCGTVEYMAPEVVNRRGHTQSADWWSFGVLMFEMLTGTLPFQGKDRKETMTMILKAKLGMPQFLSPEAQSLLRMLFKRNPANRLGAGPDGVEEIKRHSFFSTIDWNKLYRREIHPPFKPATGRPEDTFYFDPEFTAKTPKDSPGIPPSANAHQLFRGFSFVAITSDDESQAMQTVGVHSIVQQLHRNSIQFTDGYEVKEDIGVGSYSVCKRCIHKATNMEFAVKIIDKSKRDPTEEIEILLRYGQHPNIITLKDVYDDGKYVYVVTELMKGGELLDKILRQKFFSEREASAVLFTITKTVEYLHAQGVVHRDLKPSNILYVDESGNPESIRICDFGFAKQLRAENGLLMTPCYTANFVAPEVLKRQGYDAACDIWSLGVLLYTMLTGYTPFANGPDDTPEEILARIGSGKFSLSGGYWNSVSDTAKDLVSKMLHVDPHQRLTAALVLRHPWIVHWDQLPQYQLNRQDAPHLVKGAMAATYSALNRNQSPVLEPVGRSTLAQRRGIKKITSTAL
Serine/threonine-protein kinase PAK 5 (Homo sapiens), sequence (Q9P286 whole entry, looked up): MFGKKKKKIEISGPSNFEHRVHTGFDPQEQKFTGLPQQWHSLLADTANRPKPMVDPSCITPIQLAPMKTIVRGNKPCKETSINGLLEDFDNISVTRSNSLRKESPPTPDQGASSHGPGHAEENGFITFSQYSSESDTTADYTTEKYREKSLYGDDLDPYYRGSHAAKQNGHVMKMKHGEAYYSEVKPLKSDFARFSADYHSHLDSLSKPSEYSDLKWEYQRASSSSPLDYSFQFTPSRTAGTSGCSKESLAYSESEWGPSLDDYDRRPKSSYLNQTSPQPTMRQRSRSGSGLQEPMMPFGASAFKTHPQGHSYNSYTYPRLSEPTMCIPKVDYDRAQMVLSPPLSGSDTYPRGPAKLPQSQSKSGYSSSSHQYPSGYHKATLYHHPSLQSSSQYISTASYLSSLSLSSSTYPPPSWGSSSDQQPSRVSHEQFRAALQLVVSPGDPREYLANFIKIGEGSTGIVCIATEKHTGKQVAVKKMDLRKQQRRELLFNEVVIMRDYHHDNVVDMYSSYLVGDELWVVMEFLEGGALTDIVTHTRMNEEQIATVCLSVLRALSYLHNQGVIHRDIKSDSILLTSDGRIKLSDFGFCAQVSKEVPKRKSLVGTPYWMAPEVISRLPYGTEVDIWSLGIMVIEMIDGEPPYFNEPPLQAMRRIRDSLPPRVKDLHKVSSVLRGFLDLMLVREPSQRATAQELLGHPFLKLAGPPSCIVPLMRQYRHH
Cyclin-dependent kinase 16 (Homo sapiens), sequence (Q00536 whole entry): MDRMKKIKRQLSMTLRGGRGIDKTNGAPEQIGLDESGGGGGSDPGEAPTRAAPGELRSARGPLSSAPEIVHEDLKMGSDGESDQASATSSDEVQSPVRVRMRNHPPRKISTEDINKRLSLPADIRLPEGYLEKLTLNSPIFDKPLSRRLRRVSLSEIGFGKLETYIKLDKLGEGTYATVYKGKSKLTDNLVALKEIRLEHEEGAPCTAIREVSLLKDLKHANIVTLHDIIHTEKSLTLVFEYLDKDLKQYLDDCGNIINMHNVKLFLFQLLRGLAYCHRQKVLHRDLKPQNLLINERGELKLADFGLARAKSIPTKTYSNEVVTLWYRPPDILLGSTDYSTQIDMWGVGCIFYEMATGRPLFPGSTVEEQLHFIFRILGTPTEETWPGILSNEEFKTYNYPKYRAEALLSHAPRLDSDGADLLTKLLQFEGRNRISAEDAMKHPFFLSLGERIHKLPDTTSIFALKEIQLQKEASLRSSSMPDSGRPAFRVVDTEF
Serine/threonine-protein kinase 16 (Homo sapiens), sequence (O75716 whole entry): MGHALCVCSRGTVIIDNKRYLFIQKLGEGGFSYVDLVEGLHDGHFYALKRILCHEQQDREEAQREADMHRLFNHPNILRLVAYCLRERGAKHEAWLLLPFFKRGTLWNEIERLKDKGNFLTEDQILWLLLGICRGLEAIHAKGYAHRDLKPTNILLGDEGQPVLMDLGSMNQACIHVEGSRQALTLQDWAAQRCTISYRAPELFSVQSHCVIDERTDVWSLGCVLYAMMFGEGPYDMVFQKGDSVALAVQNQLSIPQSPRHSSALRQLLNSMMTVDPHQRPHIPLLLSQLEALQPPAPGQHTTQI
Casein kinase I isoform gamma-3 (Homo sapiens), sequence (Q9Y6M4 whole entry, looked up, canonical isoform): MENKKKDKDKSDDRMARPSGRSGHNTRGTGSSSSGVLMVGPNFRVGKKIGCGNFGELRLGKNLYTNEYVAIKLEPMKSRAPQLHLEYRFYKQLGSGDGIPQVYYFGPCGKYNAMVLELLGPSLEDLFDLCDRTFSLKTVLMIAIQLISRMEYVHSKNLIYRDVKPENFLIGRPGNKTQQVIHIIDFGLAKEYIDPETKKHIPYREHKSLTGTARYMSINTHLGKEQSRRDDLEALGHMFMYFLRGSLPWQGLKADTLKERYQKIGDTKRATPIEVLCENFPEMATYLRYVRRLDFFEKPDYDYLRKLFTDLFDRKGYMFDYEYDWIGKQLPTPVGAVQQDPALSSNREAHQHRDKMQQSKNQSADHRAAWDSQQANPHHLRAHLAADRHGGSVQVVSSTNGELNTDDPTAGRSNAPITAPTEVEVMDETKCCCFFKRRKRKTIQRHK
Serine/threonine-protein kinase PAK 4 (Homo sapiens), sequence (O96013 whole entry, looked up): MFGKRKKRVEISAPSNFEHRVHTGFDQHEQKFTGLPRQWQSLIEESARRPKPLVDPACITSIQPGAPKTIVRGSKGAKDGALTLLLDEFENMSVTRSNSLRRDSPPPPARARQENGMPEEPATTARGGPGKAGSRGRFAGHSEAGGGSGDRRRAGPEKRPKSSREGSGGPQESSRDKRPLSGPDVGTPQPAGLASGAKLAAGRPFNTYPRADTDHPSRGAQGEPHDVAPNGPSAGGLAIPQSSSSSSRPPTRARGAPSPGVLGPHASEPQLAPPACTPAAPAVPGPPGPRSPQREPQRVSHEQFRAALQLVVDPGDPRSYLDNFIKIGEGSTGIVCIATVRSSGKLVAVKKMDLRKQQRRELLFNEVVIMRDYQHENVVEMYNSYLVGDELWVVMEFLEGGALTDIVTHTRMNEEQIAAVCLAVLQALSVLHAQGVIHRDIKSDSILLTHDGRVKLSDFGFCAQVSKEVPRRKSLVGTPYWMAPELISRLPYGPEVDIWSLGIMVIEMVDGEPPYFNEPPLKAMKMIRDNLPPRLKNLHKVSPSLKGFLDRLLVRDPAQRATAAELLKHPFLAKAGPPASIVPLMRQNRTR
Serine/threonine-protein kinase 38 (Homo sapiens), sequence (Q15208 2-465 limits assumed): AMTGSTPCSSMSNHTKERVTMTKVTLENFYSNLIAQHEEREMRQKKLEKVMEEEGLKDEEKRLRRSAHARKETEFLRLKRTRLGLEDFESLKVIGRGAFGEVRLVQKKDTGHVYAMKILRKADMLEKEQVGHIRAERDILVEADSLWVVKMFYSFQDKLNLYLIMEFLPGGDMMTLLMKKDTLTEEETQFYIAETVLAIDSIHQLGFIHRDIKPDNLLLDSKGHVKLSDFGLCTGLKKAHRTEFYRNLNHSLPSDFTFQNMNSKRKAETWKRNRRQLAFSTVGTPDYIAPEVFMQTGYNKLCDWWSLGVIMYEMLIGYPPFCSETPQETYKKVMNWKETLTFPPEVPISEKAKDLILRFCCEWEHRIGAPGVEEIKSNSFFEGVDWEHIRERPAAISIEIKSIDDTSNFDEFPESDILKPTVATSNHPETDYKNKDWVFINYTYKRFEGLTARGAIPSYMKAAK
5'-AMP-activated protein kinase catalytic subunit alpha-2 (Homo sapiens), sequence (P54646 whole entry, looked up): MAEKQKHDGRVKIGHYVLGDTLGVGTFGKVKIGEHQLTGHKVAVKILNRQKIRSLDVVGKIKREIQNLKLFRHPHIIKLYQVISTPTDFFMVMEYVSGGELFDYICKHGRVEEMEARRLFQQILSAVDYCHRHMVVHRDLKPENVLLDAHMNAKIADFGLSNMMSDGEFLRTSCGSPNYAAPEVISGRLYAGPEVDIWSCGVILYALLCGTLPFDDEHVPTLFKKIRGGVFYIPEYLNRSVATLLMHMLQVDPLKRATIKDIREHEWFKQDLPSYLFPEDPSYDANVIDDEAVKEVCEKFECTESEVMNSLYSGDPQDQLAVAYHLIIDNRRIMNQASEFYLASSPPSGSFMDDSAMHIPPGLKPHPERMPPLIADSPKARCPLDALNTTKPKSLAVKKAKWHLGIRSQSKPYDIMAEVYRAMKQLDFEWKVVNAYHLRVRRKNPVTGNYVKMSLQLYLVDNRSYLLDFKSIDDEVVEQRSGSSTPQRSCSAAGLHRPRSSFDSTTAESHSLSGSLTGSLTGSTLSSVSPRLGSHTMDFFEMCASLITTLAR

## NS(=O)(=O)c1ccc(Nc2nc(OCC3CCCCC3)c3nc[nH]c3n2)cc1
[1]
  ΔTm: 1.9 °C
[2]
  ΔTm: 0.6 °C
[3]
  ΔTm: 0.7 °C
[4]
  ΔTm: 2.2 °C
[5]
  ΔTm: 2 °C
[6]
  ΔTm: 1 °C
[7]
  ΔTm: 3.8 °C
[8]
  ΔTm: 2.7 °C
[9]
  ΔTm: 3.2 °C
[10]
  ΔTm: -0.1 °C
[11]
  ΔTm: 4 °C
[12]
  ΔTm: 1.3 °C
[13]
  ΔTm: 4.4 °C
[14]
  ΔTm: 1.8 °C
[15]
  ΔTm: 1.5 °C
[16]
  ΔTm: 0.6 °C

## Cc1c2ccncc2c(C)c2c1[nH]c1ccccc12 [ELLIPTECINE]
[1]
  ΔTm: 1.8 °C
[2]
  ΔTm: 1 °C
[3]
  ΔTm: 0.4 °C
[4]
  ΔTm: 0.7 °C
[5]
  ΔTm: 6.3 °C
[6]
  ΔTm: 1.5 °C
[7]
  ΔTm: 0.7 °C
[8]
  ΔTm: 0.9 °C
[9]
  ΔTm: -0.4 °C
[10]
  ΔTm: 8.6 °C
[11]
  ΔTm: 3.8 °C
[12]
  ΔTm: 3.7 °C
[13]
  ΔTm: 10.7 °C
[14]
  ΔTm: 0.8 °C
[15]
  ΔTm: 1.1 °C
[16]
  ΔTm: -0.7 °C

## CC(C)(C)n1nc(-c2ccc(Cl)cc2)c2c(N)ncnc21
[1]
  ΔTm: 0.7 °C
[2]
  ΔTm: 0.2 °C
[3]
  ΔTm: 0 °C
[4]
  ΔTm: 0.6 °C
[5]
  ΔTm: 2.1 °C
[6]
  ΔTm: -0.2 °C
[7]
  ΔTm: 1 °C
[8]
  ΔTm: 0.7 °C
[9]
  ΔTm: -0.5 °C
[10]
  ΔTm: -0.1 °C
[11]
  ΔTm: 3.1 °C
[12]
  ΔTm: 2.1 °C
[13]
  ΔTm: 1 °C
[14]
  ΔTm: 0.1 °C
[15]
  ΔTm: 0.7 °C
[16]
  ΔTm: 0.3 °C

## CCCCc1c(-c2ccc(O)cc2)[nH]c2nccnc12 [ALOISINE A]
[1]
  ΔTm: 2.2 °C
[2]
  ΔTm: 0.5 °C
[3]
  ΔTm: 0.4 °C
[4]
  ΔTm: 2.5 °C
[5]
  ΔTm: 0.7 °C
[6]
  ΔTm: 3 °C
[7]
  ΔTm: 2.6 °C
[8]
  ΔTm: 2.2 °C
[9]
  ΔTm: -0.5 °C
[10]
  ΔTm: 4 °C
[11]
  ΔTm: -1.8 °C
[12]
  ΔTm: 3 °C
[13]
  ΔTm: 2.6 °C
[14]
  ΔTm: 2.9 °C
[15]
  ΔTm: 4 °C
[16]
  ΔTm: 4.2 °C

## O=C1Nc2ccccc2/C1=C/c1cnc[nH]1
[1]
  ΔTm: 3.3 °C
[2]
  ΔTm: 0.8 °C
[3]
  ΔTm: 0.7 °C
[4]
  ΔTm: 1.5 °C
[5]
  ΔTm: 4.7 °C
[6]
  ΔTm: 0.5 °C
[7]
  ΔTm: 2.2 °C
[8]
  ΔTm: 0.7 °C
[9]
  ΔTm: 4.7 °C
[10]
  ΔTm: 1.3 °C
[11]
  ΔTm: 1.3 °C
[12]
  ΔTm: 5.8 °C
[13]
  ΔTm: 7.5 °C
[14]
  ΔTm: 9 °C
[15]
  ΔTm: 2.9 °C
[16]
  ΔTm: 2.1 °C

## c1ccc(-c2n[nH]c3c2oc2ccccc23)cc1
[1]
  ΔTm: 0.5 °C
[2]
  ΔTm: 0.6 °C
[3]
  ΔTm: -0.2 °C
[4]
  ΔTm: 0.5 °C
[5]
  ΔTm: 1 °C
[6]
  ΔTm: 0.1 °C
[7]
  ΔTm: -0.3 °C
[8]
  ΔTm: 0.3 °C
[9]
  ΔTm: -0.2 °C
[10]
  ΔTm: -0.5 °C
[11]
  ΔTm: 2.9 °C
[12]
  ΔTm: 0.8 °C
[13]
  ΔTm: 6.8 °C
[14]
  ΔTm: 1 °C
[15]
  ΔTm: 1.4 °C
[16]
  ΔTm: 0.6 °C

## C[C@@H]1C[C@H]2O[C@@H]2/C=C\C=C\C(=O)Cc2c(Cl)c(O)cc(O)c2C(=O)O1 [RADICICOL]
[1]
  ΔTm: -0.3 °C
[2]
  ΔTm: 0.1 °C
[3]
  ΔTm: -0.1 °C
[4]
  ΔTm: 0.1 °C
[5]
  ΔTm: 0 °C
[6]
  ΔTm: 0.4 °C
[7]
  ΔTm: 1.3 °C
[8]
  ΔTm: 0.6 °C
[9]
  ΔTm: 0.2 °C
[10]
  ΔTm: 0.2 °C
[11]
  ΔTm: -0.5 °C
[12]
  ΔTm: 0.2 °C
[13]
  ΔTm: 0.3 °C
[14]
  ΔTm: 1 °C
[15]
  ΔTm: 0.3 °C
[16]
  ΔTm: 0.2 °C

## COc1ccc(CNc2nc(N(CCO)CCO)nc3c2ncn3C(C)C)cc1
[1]
  ΔTm: 0.6 °C
[2]
  ΔTm: 0.3 °C
[3]
  ΔTm: 0.4 °C
[4]
  ΔTm: 1.7 °C
[5]
  ΔTm: 0.1 °C
[6]
  ΔTm: -0.4 °C
[7]
  ΔTm: 1.7 °C
[8]
  ΔTm: 1.1 °C
[9]
  ΔTm: -0.3 °C
[10]
  ΔTm: 0 °C
[11]
  ΔTm: 0.3 °C
[12]
  ΔTm: 1.3 °C
[13]
  ΔTm: 2.3 °C
[14]
  ΔTm: -0.2 °C
[15]
  ΔTm: 0.4 °C
[16]
  ΔTm: 1.4 °C

## Nc1cccc(-c2cc3c(Oc4cccc(O)c4)ncnc3[nH]2)c1
[1]
  ΔTm: 0.6 °C
[2]
  ΔTm: 0.5 °C
[3]
  ΔTm: 0.2 °C
[4]
  ΔTm: 1 °C
[5]
  ΔTm: 2.7 °C
[6]
  ΔTm: 1.2 °C
[7]
  ΔTm: 2.8 °C
[8]
  ΔTm: 1.7 °C
[9]
  ΔTm: 0.1 °C
[10]
  ΔTm: -0.1 °C
[11]
  ΔTm: 2.4 °C
[12]
  ΔTm: 0.4 °C
[13]
  ΔTm: 3.5 °C
[14]
  ΔTm: 0.9 °C
[15]
  ΔTm: 2.2 °C
[16]
  ΔTm: 0.5 °C

## O=c1c2ccccc2[nH]c(=S)n1CCN1CCC(=C(c2ccc(F)cc2)c2ccc(F)cc2)CC1 [DIACYLGLYCEROL KINASE INHIBITOR II]
[1]
  ΔTm: -3.3 °C
[2]
  ΔTm: -1 °C
[3]
  ΔTm: 0.2 °C
[4]
  ΔTm: -1.3 °C
[5]
  ΔTm: 0.4 °C
[6]
  ΔTm: -0.1 °C
[7]
  ΔTm: 1.3 °C
[8]
  ΔTm: -0.2 °C
[9]
  ΔTm: -0.7 °C
[10]
  ΔTm: 0.6 °C
[11]
  ΔTm: 3.5 °C
[12]
  ΔTm: 1.2 °C
[13]
  ΔTm: 0.3 °C
[14]
  ΔTm: 0.5 °C
[15]
  ΔTm: 0.2 °C
[16]
  ΔTm: -0.2 °C

## CCOc1cc2ncnc(Nc3cccc(Br)c3)c2cc1OCC
[1]
  ΔTm: 0.1 °C
[2]
  ΔTm: 0.8 °C
[3]
  ΔTm: 0.3 °C
[4]
  ΔTm: -0.2 °C
[5]
  ΔTm: 0.3 °C
[6]
  ΔTm: 0.2 °C
[7]
  ΔTm: 0.4 °C
[8]
  ΔTm: 0.4 °C
[9]
  ΔTm: -1 °C
[10]
  ΔTm: -0.9 °C
[11]
  ΔTm: 3.5 °C
[12]
  ΔTm: 2.5 °C
[13]
  ΔTm: 0.9 °C
[14]
  ΔTm: 2.9 °C
[15]
  ΔTm: 0.7 °C
[16]
  ΔTm: 0.6 °C

## O=C1NC(=O)C(c2cn(CCCn3ccnc3)c3ccccc23)=C1Nc1ccccc1
[1]
  ΔTm: 0.4 °C
[2]
  ΔTm: 0.7 °C
[3]
  ΔTm: -0.7 °C
[4]
  ΔTm: 0.5 °C
[5]
  ΔTm: 0.9 °C
[6]
  ΔTm: 0.6 °C
[7]
  ΔTm: 0.7 °C
[8]
  ΔTm: 0.1 °C
[9]
  ΔTm: 0.6 °C
[10]
  ΔTm: 0.1 °C
[11]
  ΔTm: 6.1 °C
[12]
  ΔTm: 0.5 °C
[13]
  ΔTm: 0.6 °C
[14]
  ΔTm: 0.5 °C
[15]
  ΔTm: 0.7 °C
[16]
  ΔTm: 0.4 °C

## C[S+]([O-])c1ccc(CSc2nc(-c3ccc(F)cc3)c(-c3ccncc3)[nH]2)cc1 (stereo not drawn)
[1]
  ΔTm: -0.3 °C
[2]
  ΔTm: 0 °C
[3]
  ΔTm: 0 °C
[4]
  ΔTm: -0.1 °C
[5]
  ΔTm: 0.1 °C
[6]
  ΔTm: -0.2 °C
[7]
  ΔTm: 0.1 °C
[8]
  ΔTm: 0.4 °C
[9]
  ΔTm: -0.7 °C
[10]
  ΔTm: -0.3 °C
[11]
  ΔTm: 0.2 °C
[12]
  ΔTm: 0.1 °C
[13]
  ΔTm: 0.5 °C
[14]
  ΔTm: 0 °C
[15]
  ΔTm: 0.4 °C
[16]
  ΔTm: 0.1 °C

Reference: ChEMBL document CHEMBL1145498, “A systematic interaction map of validated kinase inhibitors with Ser/Thr kinases” (Proc Natl Acad Sci U S A, 2007)
